In data set [1] the test system is Salmonella Pathogenicity Island-1 (SPI-1) genes. The experiment in a line: Expression of Salmonella Pathogenicity Island-1 genes. The format is cell-based, Salmonella Typhimurium.
In the next data set the test system is HeLa cells. Briefly: Salmonella invasion of indole-treated HeLa cells (colonization resistance). The format is cell-based. The conditions noted are these: host cells treated with indole.
Data set [2] concerns TNF. Briefly: TNF production in DC2.4 cell line, intracellular staining, flow cytometry. The format is cell-based, murine. How it is done:
Intracellular staining was performed to assess TNF production.
FIG. 8 illustrates that indole synergizes with TGF-β to inhibit TNF production in DCs. Flow cytometric analysis was performed on DC2.4 cells treated with indole or DMF control for 24 hours in the presence or absence of TGF-β (10 ng/ml). […] Shaded gray areas represent unstimulated samples. Representative histograms from one of three independent experiments.
One important way that DCs shape local immune responses is through the production of cytokines. Cytokine production was addressed in indole-conditioned dendritic cells, first using the murine dendritic cell line, DC2.4. Cells pre-treated with physiologically relevant doses of indole produced less TNF upon stimulation with the bacterial surface component and TLR4 ligand, LPS. Production of TNF was reduced by 50% following treatment with 1 mM indole (FIG. 1). This response is biologically important as LPS serves as the prototypical endotoxin, present on the surface of virtually all gram-negative bacteria including gut-resident commensal strains.
(In general: In flow cytometry, cells or beads pass a laser one at a time.)

In data set [3] the test system is aldehyde dehydrogenase (ALDH). The experiment in a line: Aldehyde dehydrogenase activity in BMDCs (Aldefluor). The format is cell-based, mouse. The following applies: indole 1 mM from day 3, Aldefluor. On the procedure: FIG. 13A: BMDCs were cultured from day 3 with indole (1 mM), retinoic acid (1 uM), or DMF control were assayed for aldehyde dehydrogenase (ALDH) activity using the Aldefluor commercial kit. The ALDH inhibitor, DEAB reagent, was included to control for background fluorescence. Aldefluor fluorescence as a measure of ALDH activity was analyzed by flow cytometry. Data is reported as percentage of Aldefluor positive DCs (left panel) and corresponding MFI values (right panel). Individual dots represent data from five independent experiments. FIG. 13B: Gene expression of aldh1a2 was assayed by real-time qPCR in day 7 BMDCs cultured with indole from day 3. Gene expression was normalized to 18 s ribosomal RNA. […]
One possible explanation for these observations is that indole promotes retinoic acid availability to the DCs, thus inducing gut homing markers indirectly by providing substrate for a previously identified mechanism. To investigate this possibility, aldehyde dehydrogenase (ALDH) activity was analyzed via flow cytometry using the fluorescent ALDH substrate, Aldefluor. […]
Activity of aldehyde dehydrogenase (ALDH) in individual BMDCs was measured using an Aldefluor staining kit (Stem Cell Technologies) according to the manufacturer's instructions with minor modifications. […] Subsequently, cells were stained with CD11c in cold Aldefluor assay buffer and then analyzed by flow cytometry.

The test system of a further data set is naïve CD4+CD25− T cells. The experiment in a line: T cell activation in the presence of BMDC supernatant: Treg induction. The format is cell-based, mouse. The following applies: T cells on α-CD3/α-CD28 plates, 72 hours.
The next data set concerns DSS colitis. The experiment in a line: BMDC transfer in murine DSS colitis model. The format is in vivo, mouse. The following applies: mice transferred i.p. with BMDCs conditioned with indole, 5% DSS day 7-14, endpoint day 20. On the procedure: FIGS. 21A and 21B graphically illustrate that the in vivo transfer of indole-conditioned DCs prevented shortening of colon in a murine DSS colitis model. BMDCs were cultured with indole, RA, or DMF from day 3. Two million BMDCs were transferred via i.p. injection to WT C57BL/6 mice on days 0, 6, and 9 of the experiment. Mice received 5% dextran sulfate sodium (DSS) ad libitum in their drinking water from day 7 through day 14. Mice were euthanized on day 20 and colons were immediately removed and measured for length (FIG. 21A) and weight (FIG. 21B). n=4 mice/group. *p<0.05 by one-way ANOVA followed by Dunnett's post-test, comparing to unmanipulated control colons.
A hallmark pathological sign of colitis is shortening of the colon, mediated by abscesses forming in the intestinal crypts that disrupt the mucosal architecture and are later replaced by scar tissue. […] Shortening of the colon is an established indicator of colitis pathology in the murine model of DSS colitis.
BMDCs were cultured with indole, RA, or DMF from day 3 as described above. BMDCs were washed, counted, and resuspended in sterile PBS (Ca—Mg—) for transfer to WT C57BL/6 recipients. Two million BMDCs were transferred via i.p. injection on days 0, 6, and 9 of the experiment. Mice received 5% dextran sulfate sodium (DSS, MW=36,000-50,000; MP Biomedicals) ad libitum in their drinking water from day 7 through day 14. […]

The subject of another data set is Erk. Briefly: pERK signaling in BMDCs. The data set is classed as cell-based, mouse. The following applies: 1 mM TDMM 24 hours, CpG (5 uM) 15 minutes. How it is done: The inventors performed a series of assays where bone marrow derived macrophages (BMDMs), bone marrow derived dendritic cells (BMDCs), and splenic dendritic cells (splenic DCs), were exposed to a series of TDMMs, including indole, indole-3-acetate (I3AT), 5-hydroxyindole (5HI), and indole-3-pyruvate (I3P), as well as indole-3-carbinol (I3C; a plant derived compound) to be used for a positive control (1 mM for 24 hours). The BMDMs and BMDCs were stimulated with LPS for 4 hours and assayed at day 7 for expression of various pro-inflammatory cytokines. In a similar assay, the BMDMs and BMDCs were stimulated with LPS or CpG, respectively, for 15 minutes and assayed for pAKT and pERK signaling, which is a reflection of pro-inflammatory response.

Data set [4] has as its system TNF. The experiment in a line: TNF production in BMDCs, intracellular staining, flow cytometry. The data set is classed as cell-based, mouse.
The conditions of data set [5]: Pinero-Fernandez et al. 2011; cited from earlier work.
The next data set has as its system IL-12. The experiment in a line: IL-12 production in splenic CD11c+ DCs ex vivo. The conditions noted are these: indole overnight, LPS or heat-killed S. typhimurium.
A further data set has as its system nitric oxide (NO). Briefly: Nitric oxide production in DC2.4 and BMDC (Griess reaction).
In a further data set the test system is DCs. The experiment in a line: DC viability: lactate dehydrogenase release and propidium iodide uptake. The following applies: versus solvent controls.

`c1ccc2[nH]ccc2c1` [Indole, indole]: in data set [1], the “expression of four SPI-1 genes involved in invasion” value is reported as “decrease in expression”. Moreover, the “effect of short chain fatty acids on attenuation of SPI-1 gene expression” value in [1] (indole together with short chain fatty acids) is reported as “synergistically enhanced”. Further, the “reduction of Salmonella invasion of indole-treated HeLa cells” value in the data set on HeLa cells stood at 70%. Also, the “reduction of TNF production” value with TNF [2] (DC2.4, 1 mM indole pre-treatment, LPS stimulation) was determined as 50%. Also, the “inhibition of TNF production with concurrent TGF-β treatment” value with TNF [2] (DC2.4, indole 24 hours with TGF-β (10 ng/ml), LPS 1 ug/ml 4 hours) is “marked synergistic effect”. Also, the “ALDH activity in DCs” value in data set [3] is given as “does not affect ALDH activity”. Further, the “Treg induction by supernatant of conditioned BMDCs relative to solvent control DCs” value with naïve CD4+CD25− T cells was “No significant induction of Tregs”. In the data set on DSS colitis, this compound showed an average colon length of about 6 cm. Also, the pERK result in the data set on Erk is listed as “↓↓”. For the same compound, the “reduction in TNF” value with TNF [4] (BMDCs exposed to indole from day 3 of 7 day culture, LPS stimulation) stood at 30%. The “inhibition of TNF production” value in the data set on TNF [4] (BMDCs, indole for 18 hours followed by TLR stimulation) was about 2 fold. For the same compound, in data set [5], the diffusion across membranes result was “freely diffusible across membranes”. Besides, the “inhibition of IL-12 production” value in the data set on IL-12 is at least 2 fold. In the data set on nitric oxide (NO), the “secretion of nitric oxide (NO)” value was “intact”. Also, the “cytotoxicity in DCs” value with DCs is listed as “did not induce cytotoxicity”.

Source of the values: patent US11612586B2, “Indole regulation of antigen presenting cells” (THE TEXAS A&M UNIVERSITY SYSTEM, priority 2016, dated 2023).
